Experiments:
[1] = Determination of particle diameter (ultracentrifugal automatic particle size distribution analyzer, silicone oil dispersion); format: physicochemical
Experimental: Determination of Particle Diameter
Twenty (20) mg each of the pre-pulverized present compound and the pulverizates of the compound as obtained in Examples 1 and 2 and Comparative Example 1 was taken in a test tube and 5 ml of silicone oil (product of Shin-Etsu Chemical Co.) was added. The mixture was stirred with a bench-top mixer for 20 seconds and further dispersed with a bench-top supersonic washer (UT-51N, product of Sharp Corporation) for 5 minutes. Then, the particle size distribution was determined with an ultracentrifugal automatic particle size distribution analyzer (CAPA-700, manufactured by Horiba, Ltd.).

[2] = Confirmation of crystalline state by powder X-ray diffraction; format: physicochemical; settings: after a pulverization time of 60 minutes, mill of the closed-circuit pulverizing type
Experimental: Confirmation of Crystalline State
Using each of the unpulverized present compound and the pulverizates of the same compound as obtained in Examples 1 and 2 and Comparative Example 1, the powder X-ray diffraction pattern was recorded with a powder x-ray diffraction analyzer (RAD-2B, manufactured by Rigaku Denki).
It will be apparent from the drawings that the pulverizates as micronized with a mill of the open-circuit pulverizing type retained the crystalline form, showing X-ray diffraction peaks.

[3] = Administration experiment (in vivo): oral capsule, plasma concentration of the metabolite by HPLC; settings: 4 male crab-eating monkeys, capsule of Example 1 pulverizate versus capsule of unpulverized compound
Description: Administration Experiment (in vivo)
A capsule prepared using the unpulverized present compound and a capsule prepared using the pulverizate obtained in Example 1 (the present pulverizate) according to the physical blending formula shown in Table 2 were respectively administered orally to 4 crab-eating monkeys (male, aged 6˜9 years). The blood was serially sampled and the plasma concentration of the metabolite of the present compound [(E)-4-[2-[2-[N-(4-methoxybenzenesulfonyl)amino]phenyl]-ethenyl]pyridine 1-oxide] was determined by HPLC.
The abscissa represents time (hrs) and the ordinate represents the plasma concentration (μg/ml) of the metabolite.

[4] = after 120 min. pulverization, planetary ball-mill
[5] = before pulverization (bulk powder)

Structure (SMILES) | Mean particle diameter ([1]; after 30 min. pulverization, planetary ball-mill) | Mean particle diameter ([1]; after 60 min. pulverization, planetary ball-mill) | Fraction of particles ≧30 μm [1, 4] | Mean particle diameter [1, 4] | Fraction of particles ≧30 μm [1, 5] | Fraction of particles ≧50 μm [1, 5] | Mean particle diameter [1, 5] | Crystalline state (X-ray diffraction peaks) [2] | Fraction of particles ≧30 μm ([1]; after pulverization) | Mean particle diameter ([1]; after pulverization) | Fraction of particles ≧50 μm ([1]; after pulverization) | Plasma concentration (metabolite determined by HPLC) [3]
COc1ccc(S(=O)(=O)N(C(C)=O)c2ccccc2/C=C/c2cc[n+]([O-])cc2)cc1 [Comparative Example, (E)-4-[2-[2-[N-acetyl-N-(4-methoxybenzenesulfonyl)amino]phenyl]ethenyl]-pyridine 1-oxide] | 15.1 μm | 12.4 μm | 0% | 10.7 ± 4.5 μm | 35.5% | 20.4% | 25.9 ± 43.3 μm | changed to a non-crystalline compound showing no X-ray diffraction peaks | – | – | – | –
COc1ccc(S(=O)(=O)N(C(C)=O)c2ccccc2/C=C/c2cc[n+]([O-])cc2)cc1 [Example 1, (E)-4-[2-[2-[N-acetyl-N-(4-methoxybenzenesulfonyl)amino]phenyl]ethenyl]-pyridine 1-oxide] | – | – | – | – | 35.5% | 20.4% | 25.9 ± 43.3 μm | – | 0% | 9.7 ± 4.3 μm | – | –
COc1ccc(S(=O)(=O)N(C(C)=O)c2ccccc2/C=C/c2cc[n+]([O-])cc2)cc1 [Example 2, (E)-4-[2-[2-[N-acetyl-N-(4-methoxybenzenesulfonyl)amino]phenyl]ethenyl]-pyridine 1-oxide] | – | – | – | – | 26.6% | 12.8% | 24.2 ± 31.2 μm | – | 6.8% | 15.2 ± 6.8 μm | 0% | –
COc1ccc(S(=O)(=O)N(C(C)=O)c2ccccc2/C=C/c2cc[n+]([O-])cc2)cc1 [the present compound, (E)-4-[2-[2-[N-acetyl-N-(4-methoxybenzenesulfonyl)amino]phenyl]ethenyl]-pyridine 1-oxide] | – | – | – | – | – | – | – | – | – | – | – | significantly increased
